Reference: patent US11273168B2, “Methods of treating anxiety by administering a substituted quinolone” (OTSUKA PHARMACEUTICAL CO., LTD., priority 2010, dated 2022)
Structures can show the parent of a compound that is named as a salt. Where two headings read alike, the source gives them in different places.

How the values were obtained:
Format in all cases: biochemical
Serotonin (5-HT) uptake = molecular target: T1, Serotonin (5-HT) uptake (Rattus norvegicus, UniProt P31652); assay: Serotonin (5-HT) uptake inhibitory activity using rat brain synaptosome (frontal cortex); conditions: tritium-labeled 5-HT 8 nM, 37° C. 10 minutes
T1 construct: The suspension was used as a crude synaptosome fraction; from tissue; host or cells: rat (male Wistar) frontal cortex, crude synaptosome fraction
T1 sequence (P31652 whole entry): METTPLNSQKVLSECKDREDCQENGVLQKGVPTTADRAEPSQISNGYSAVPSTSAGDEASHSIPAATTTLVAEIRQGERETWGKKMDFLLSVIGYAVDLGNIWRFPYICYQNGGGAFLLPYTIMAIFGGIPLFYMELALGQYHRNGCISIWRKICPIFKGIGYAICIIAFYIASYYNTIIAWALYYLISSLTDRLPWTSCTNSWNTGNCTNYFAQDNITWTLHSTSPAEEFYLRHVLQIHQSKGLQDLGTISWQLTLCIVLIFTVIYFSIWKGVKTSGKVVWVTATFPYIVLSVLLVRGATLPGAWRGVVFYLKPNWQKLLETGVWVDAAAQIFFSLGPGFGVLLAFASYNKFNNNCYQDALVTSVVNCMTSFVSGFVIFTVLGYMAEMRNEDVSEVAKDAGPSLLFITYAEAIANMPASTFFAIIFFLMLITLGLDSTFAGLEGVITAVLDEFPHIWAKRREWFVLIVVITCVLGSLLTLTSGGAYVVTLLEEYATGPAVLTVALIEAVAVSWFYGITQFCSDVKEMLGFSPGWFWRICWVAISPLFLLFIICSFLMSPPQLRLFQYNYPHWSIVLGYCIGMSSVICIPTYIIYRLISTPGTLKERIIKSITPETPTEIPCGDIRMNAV
Method: Measurement of Serotonin (5-HT) Uptake Inhibitory Activity of Test Compound Using Rat Brain Synaptosome
(§1) Male Wistar rats were decapitated, and their brains were removed and dissected to remove the frontal cortex. The separated frontal cortex was placed in a 20-fold weight of a 0.32 molarity (M) sucrose solution and homogenized with a potter homogenizer. The homogenate was centrifuged at 1000 g at 4° C. for 10 minutes, and the supernatant was further centrifuged at 20000 g at 4° C. for 20 minutes. […] The suspension was used as a crude synaptosome fraction.
(§2) Uptake reaction was performed using each well of a 96-well round-bottom plate and a 200 μl volume in total of a solution containing pargyline (final concentration: 10 μM) and ascorbic acid (final concentration: 0.2 mg/ml).
(§3) Specifically, a solvent, unlabeled 5-HT, and serially diluted test compounds were separately added to the wells, and the synaptosome fraction was added in an amount 1/10 of the final volume to each well and preincubated at 37° C. for 10 minutes. Then, a tritium-labeled 5-HT solution (final concentration: 8 nM) was added thereto to initiate uptake reaction at 37° C. 10 minutes later, the uptake reaction was terminated by suction filtration through a 96-well glass fiber filter plate. Furthermore, the filter was washed with a cold saline and then sufficiently dried. MicroScint-O (PerkinElmer Co., Ltd.) was added thereto, and the residual radioactivity on the filter was measured.
(§4) An uptake value obtained by the addition of only the solvent was defined as 100%, and an uptake value (nonspecific uptake value) obtained by the addition of the unlabeled 5-HT (final concentration: 10 μM) was defined as 0%. A 50%, inhibitory concentration was calculated from the test compound concentrations and inhibitory activities thereat.

[1] = molecular target: Norepinephrine (NE) uptake (Rattus norvegicus, UniProt Q9WTR4); assay: Norepinephrine (NE) uptake inhibitory activity using rat brain synaptosome (hippocampus)
Method: Measurement of Norepinephrine (NE) Uptake Inhibitory Activity of Test Compound Using Rat Brain Synaptosome
Male Wistar rats were decapitated, and their brains were removed and dissected to remove the hippocampus. The separated hippocampus was placed in a 20-fold weight of a 0.32 molarity (M) sucrose solution and homogenized with a potter homogenizer. The homogenate was centrifuged at 1000 g at 4° C. for 10 minutes, and the supernatant was further centrifuged at 20000 g at 4° C. for 20 minutes. The pellet was suspended in an incubation buffer (20 mM HEPES buffer (pH 7.4) containing 10 mM glucose, 145 mM sodium chloride, 4.5 mM potassium chloride, 1.2 mM magnesium chloride, and 1.5 mM calcium chloride). The suspension was used as a crude synaptosome fraction.
as §2
as §3, with “unlabeled NE,” for “unlabeled 5-HT,”, “tritium-labeled NE” for “tritium-labeled 5-HT”, “concentration: 12” for “concentration: 8”, “C. Ten” for “C. 10”
as §4, with “NE” for “5-HT”, “50%” for “50%,”

Dopamine (DA) uptake = molecular target: T2, Dopamine (DA) uptake (Rattus norvegicus, UniProt P23977); assay: Dopamine (DA) uptake inhibitory activity using rat brain synaptosome (corpus striatum); conditions: tritium-labeled DA 2 nM, 37° C. ten minutes, read-out: 50% Inhibitory concentration
T2 construct: The suspension was used as a crude synaptosome fraction; from tissue; host or cells: rat (male Wistar) corpus striatum, crude synaptosome fraction
T2 sequence (P23977 whole entry): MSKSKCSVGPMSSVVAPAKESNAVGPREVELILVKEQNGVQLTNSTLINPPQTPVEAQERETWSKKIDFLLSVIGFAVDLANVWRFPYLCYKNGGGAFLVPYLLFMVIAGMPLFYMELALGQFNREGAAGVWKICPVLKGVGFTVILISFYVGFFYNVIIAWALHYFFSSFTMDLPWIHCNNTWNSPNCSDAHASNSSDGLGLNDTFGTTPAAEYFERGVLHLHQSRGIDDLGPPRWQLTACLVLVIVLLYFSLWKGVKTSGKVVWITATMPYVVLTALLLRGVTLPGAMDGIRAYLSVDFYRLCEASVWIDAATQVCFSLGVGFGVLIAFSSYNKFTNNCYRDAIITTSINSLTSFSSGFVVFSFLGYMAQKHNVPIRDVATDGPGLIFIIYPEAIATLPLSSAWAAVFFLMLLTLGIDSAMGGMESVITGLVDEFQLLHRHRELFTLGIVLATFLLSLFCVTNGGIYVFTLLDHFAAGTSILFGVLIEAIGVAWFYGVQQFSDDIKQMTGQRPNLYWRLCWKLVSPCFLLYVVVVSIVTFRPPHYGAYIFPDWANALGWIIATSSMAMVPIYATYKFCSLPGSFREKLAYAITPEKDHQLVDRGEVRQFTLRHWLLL
Method: Measurement of Dopamine (DA) Uptake Inhibitory Activity of Test Compound Using Rat Brain Synaptosome
as §1, with “corpus striatum.” for “frontal cortex.”, “corpus striatum” for “frontal cortex”
Uptake reaction was performed using each well of a 96-well round-bottom plate and a 200 μl volume in total of a solution containing pargyline (final concentration: 10 μM) and ascorbic acid (final concentration: 0.2 mg/mil).
as §3, with “unlabeled DA,” for “unlabeled 5-HT,”, “tritium-labeled DA” for “tritium-labeled 5-HT”, “concentration: 2” for “concentration: 8”, “C. Ten” for “C. 10”
as §4, with “DA” for “5-HT”, “50%” for “50%,”

[2] = read-out: 50% Inhibitory concentration
[3] = tritium-labeled NE 12 nM, 37° C. ten minutes, read-out: 50% inhibitory concentration

IC50 (Serotonin (5-HT) uptake; [2]) [nM]	IC50 [1, 3] [nM]	IC50 (Dopamine (DA) uptake) [nM]	Compound	IC50 (Serotonin (5-HT) uptake; 50% Inhibitory concentration) [nM]	IC50 ([1]; read-out: 50% inhibitory concentration, tritium-labeled NE 12 nM, 37° C. ten minutes) [nM]
5.8	6	12.1	CN1[C@H]2CCCC[C@@H]2N(c2ccc3sccc3c2)CC1(C)C [Example 187]	–	–
6	0.8	7.9	CC1(C)CN(c2ccc3ccsc3c2)[C@H]2CCCC[C@@H]2N1 [Example 188]	–	–
3.2	2.1	13.5	CC1(C)CN(c2cccc3occc23)[C@H]2CCCC[C@@H]2N1 [Example 191]	–	–
4.4	1.7	18.3	CC1(C)CN(c2ccc3occc3c2)[C@H]2CCCC[C@@H]2N1 [Example 196]	–	–
7.4	3.7	38.8	COc1c(F)cc(N2CC(C)(C)N[C@H]3CCCC[C@@H]32)cc1F [Example 233]	–	–
6.8	3.8	8.8	CC1(C)CN(c2ccc(Cl)c(Cl)c2)[C@H]2CCCC[C@@H]2N1 [Example 246]	–	–
42.8	6.6	8.7	CN1[C@H]2CCCC[C@@H]2N(c2ccc(Cl)c(Cl)c2)CC1(C)C [Example 247]	–	–
44	6.8	8.7	CN1[C@@H]2CCCC[C@H]2N(c2ccc(Cl)c(Cl)c2)CC1(C)C [Example 273]	–	–
7.2	4.5	10.9	Clc1ccc(N2CC3(CCC3)N[C@H]3CCCC[C@H]32)cc1 [Example 276]	–	–
3.8	7.5	54	Cc1c(Cl)cccc1N1CC(C)(C)N[C@H]2CCCC[C@H]21 [Example 468]	–	–
5.2	5.9	47.9	CC1(C)CN(c2csc3ccccc23)[C@@H]2CCCC[C@@H]2N1 [Example 577]	–	–
4.5	5.1	46.5	COc1ccc(N2CC3(CCC3)N[C@H]3CCCC[C@H]32)c2ccoc12 [Example 579, (4a′R,8a′S)-4′-(7-methoxybenzofuran-4-yl)octahydro-1′H-spiro[cyclobutane-1,2′-quinoxaline]]	–	–
2.5	5.4	202	CC1(C)CN(c2cc(F)c(F)c3occc23)[C@@H]2CCCC[C@@H]2N1 [Example 580, (4aS,8aR)-1-(6,7-difluorobenzofuran-4-yl)-3,3-dimethyldecahydroquinoxaline hydrochloride]	–	–
4.1	6	68.8	CC1(C)CN(c2ccc3[nH]c(C#N)cc3c2)[C@H]2CCCC[C@@H]2N1 [Example 582, (4aS,8aS)-1-(2-cyano-1H-indol-5-yl) 3,3-dimethyldecahydroquinoxaline]	–	–
0.9	1.9	76.1	CC1(C)CN(c2ccc(OC(F)F)c(F)c2)[C@H]2CCCC[C@@H]2N1 [Example 587, (4aS,8aS)-1-(4-(difluoromethoxy)-3-fluorophenyl)-3,3-dimethyldecahydroquinoxaline dihydrochloride]	–	–
4.6	5.9	13.2	COc1cc2ccc(N3CC(C)(C)N[C@H]4CCCC[C@H]43)cc2cc1C#N [Example 610]	–	–
2.2	76	9.7	CC1(C)CN(c2ccc3cc(C#N)oc3c2)[C@@H]2CCCC[C@@H]2N1 [Example 641]	–	–
1.5	1	9	CC1(C)CN(c2ccc3[nH]c(C#N)cc3c2)[C@@H]2CCCC[C@@H]2N1 [Example 654]	–	–
4.2	4.8	60.1	CC1(C)CN(c2csc3ccccc23)[C@@H]2CCCC[C@@H]2N1 [Example 717]	–	–
6.5	0.6	4.3	CC1(C)CN(c2ccc(F)c3[nH]ccc23)[C@H]2CCCC[C@H]2N1 [Example 780]	–	–
6.2	3	5.2	CC1(C)CN(c2ccc3[nH]c(C#N)cc3c2)[C@H]2CCCC[C@H]2N1 [Example 781]	–	–
1.4	0.7	161	CC1(C)CN(c2ccc(F)c3c2CCC3)[C@H]2CCCC[C@H]2N1 [Example 791]	–	–
42.6	30.4	83.8	CC1(C)CN(c2ccc(O)cc2)[C@H]2CCCC[C@H]2N1 [Example 805]	–	–
28.1	0.9	5.1	CC1(C)CN(c2csc3ccccc23)[C@H]2CCCC[C@H]2N1 [Example 841]	–	–
7.3	1	7	CC1(C)CN(c2ccc3cc(O)ccc3c2)[C@H]2CCCC[C@@H]2N1 [Example 850]	–	–
4.7	11.7	85.7	CC1(C)CN(c2ccc3cc(OC(F)F)ccc3c2)[C@H]2CCCC[C@@H]2N1 [Example 867]	–	–
7.3	4.8	52.8	CC1(C)CN(c2cc(Cl)c3occc3c2)[C@H]2CCCC[C@@H]2N1 [Example 884]	–	–
5.4	3	19.9	CC1(C)CN(c2ccc(F)c3[nH]ccc23)[C@H]2CCCC[C@@H]2N1 [Example 895]	–	–
10	0.8	42	CC1(C)CN(c2ccc(O)c(Cl)c2)[C@H]2CCCC[C@@H]2N1 [Example 918]	–	–

Compound	IC50 (Serotonin (5-HT) uptake; [2]) [nM]	IC50 [1, 3] [nM]	IC50 (Dopamine (DA) uptake) [nM]	IC50 (Serotonin (5-HT) uptake; 50% Inhibitory concentration) [nM]	IC50 ([1]; read-out: 50% inhibitory concentration, tritium-labeled NE 12 nM, 37° C. ten minutes) [nM]
CC1(C)CN(c2ccc(F)c3occc23)[C@H]2CCCC[C@@H]2N1 [Example 192]	2.9	3.6	8.6	–	–
CC1(C)CN(c2ccc(Cl)c3occc23)[C@H]2CCCC[C@@H]2N1 [Example 193]	3.4	4.4	5.7	–	–
CC1(C)CN(c2ccnc3[nH]ccc23)[C@H]2CCCC[C@@H]2N1 [Example 586, (4aS,8aS)-3,3-dimethyl-1-(1H-pyrrolo[2,3-b]pyridin-4-yl)decahydroquinoxaline fumarate]	5.2	4	93	–	–
CC1(C)CN(c2cc(F)cc3ccsc23)[C@@H]2CCCC[C@@H]2N1 [Example 621]	–	–	128	7	0.7
CC1(C)CN(c2cccc3[nH]ncc23)[C@H]2CCCC[C@H]2N1 [Example 778]	87.5	4.2	4.9	–	–
